The values that follow come from PubChem BioAssay AID1963446 (Molecular Pharmacology Branch, DTP, NCI, 2024).

For this assay, the system named is 993429-296-R-J1-PDC complex spheroid growth, percent test/control. Briefly: Anticancer human tumor 993429-296-R-J1-PDC patient-derived uterine sarcoma cell line growth inhibition [Asc]. The note with it: for viability, T/C: stronger effect = lower value. The method, boiled down:
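Complex spheroids combining tumor cells with HUVEC endothelial cells and human MSCs, at 37 degrees C, 5% CO2; agents tested alone or combined, half-log dilutions from at or near clinical Cmax, or 10 microM if Cmax unknown.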

Where [1] appears, read: curve of first compound, second compound 0.01 µM.
Where [2] appears, read: curve of first compound, second compound 0.0316 µM.
The mark [3] stands for this setting: curve of first compound, second compound 0.1 µM.
The mark [4] stands for this setting: curve of first compound, second compound 0.316 µM.
Where [5] appears, read: curve of first compound, second compound 1 µM.
The mark [6] stands for this setting: second compound 0.01 µM, first compound 0.00316 µM.
Where [7] appears, read: second compound 0.01 µM, first compound 0.01 µM.
[8] abbreviates: second compound 0.01 µM, first compound 0.0316 µM.
[9] abbreviates: second compound 0.01 µM, first compound 0.1 µM.
[10] abbreviates: second compound 0.0316 µM, first compound 0.00316 µM.
Where [11] appears, read: second compound 0.0316 µM, first compound 0.01 µM.
[12] abbreviates: second compound 0.0316 µM, first compound 0.0316 µM.
Setting [13] is: second compound 0.0316 µM, first compound 0.1 µM.
Setting [14] is: second compound 0.1 µM, first compound 0.00316 µM.
Setting [15] is: second compound 0.1 µM, first compound 0.01 µM.
Setting [16] is: second compound 0.1 µM, first compound 0.0316 µM.
Where [17] appears, read: second compound 0.1 µM, first compound 0.1 µM.
The mark [18] stands for this setting: second compound 0.316 µM, first compound 0.00316 µM.
[19] abbreviates: second compound 0.316 µM, first compound 0.01 µM.
Setting [20] is: second compound 0.316 µM, first compound 0.0316 µM.
The mark [21] stands for this setting: second compound 0.316 µM, first compound 0.1 µM.
Setting [22] is: second compound 1 µM, first compound 0.00316 µM.
[23] abbreviates: second compound 1 µM, first compound 0.01 µM.
Where [24] appears, read: second compound 1 µM, first compound 0.0316 µM.
The mark [25] stands for this setting: second compound 1 µM, first compound 0.1 µM.

“And” between values parts separate entries of the source, which are not always exact repeats. Equal values may be shown once.
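Also: spheroids exposed to compounds for seven days.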

For orientation: IC50 means the concentration needed to halve the response being measured. One may read the viability, T/C as the ratio of treated to control. With `Cn1ncnc1[C@H]1c2n[nH]c(=O)c3cc(F)cc(c23)N[C@@H]1c1ccc(F)cc1` + CNC(C)C(=O)NC1CN(S(=O)(=O)c2cccc(S(=O)(=O)N3CCC4CCC(C(=O)NC(c5ccccc5)c5ccccc5)N4C(=O)C(NC(=O)C(C)NC)C3)c2)CCC2CCC(C(=O)NC(c3ccccc3)c3ccccc3)N2C1=O, the IC50 is 4.14 nM under setting [1]; 7.99 nM under setting [2]; 3.94 nM under setting [3]; 5.81 nM under setting [4]; less than 0.316 nM under setting [5]. The viability, T/C reads like this: (second compound 0.01 µM, first compound 0.000316 µM) 75.9%; (second compound 0.01 µM, first compound 0.001 µM) 54.9%; under setting [6], 52.7%; under setting [7], 47%; under setting [8], 32.6%; under setting [9], 21.3%. Besides, the viability, T/C by setting is: (second compound 0.0316 µM, first compound 0.000316 µM) 60.4%; (second compound 0.0316 µM, first compound 0.001 µM) 69.1%; under setting [10], 54.1%; under setting [11], 48.9%; under setting [12], 35.9%; under setting [13], 26.5%. The viability, T/C (second compound 0.1 µM, first compound 0.000316 µM) was 52%; the viability, T/C (second compound 0.1 µM, first compound 0.001 µM) was 52.7%; the viability, T/C under setting [14] was 51.2%; the viability, T/C under setting [15] was 45.3%; the viability, T/C under setting [16] is 32.5%; the viability, T/C under setting [17] was 23.2%. The viability, T/C runs as follows: (second compound 0.316 µM, first compound 0.000316 µM) 56.5%; (second compound 0.316 µM, first compound 0.001 µM) 60.7%; under setting [18], 54.8%; under setting [19], 44.4%; under setting [20], 17.5%; under setting [21], 13.7%. The viability, T/C by setting is: (second compound 1 µM, first compound 0.000316 µM) 50.6%; (second compound 1 µM, first compound 0.001 µM) 45.7%; under setting [22], 46.9%; under setting [23], 39.4%; under setting [24], 21.6%; under setting [25], 10.9%.
On to `C#Cc1c(F)ccc2cc(O)cc(-c3ncc4c(N5CC6CCC(C5)N6)nc(OCC56CCCN5CC(F)C6)nc4c3F)c12` (centres undefined) + CCN1C(C(=O)NC23CCC(C(=O)O)(CC2)CC3)C(c2cccc(Cl)c2F)C2(C(=O)Nc3cc(Cl)ccc32)C12CCCCC2, for which the IC50 is, setting by setting: (curve of first compound, second compound 0.03 µM) 5140 nM; (curve of first compound, second compound 0.0949 µM) 5400 nM; (curve of first compound, second compound 0.3 µM) 5550 nM; (curve of first compound, second compound 0.949 µM) 5320 nM; (curve of first compound, second compound 3 µM) 4940 nM. In addition, the viability, T/C was 93.3% (second compound 0.03 µM, first compound 0.0316 µM); 96.5% (second compound 0.03 µM, first compound 0.1 µM); 106% (second compound 0.03 µM, first compound 0.316 µM); 84% (second compound 0.03 µM, first compound 1 µM); 86.3% (second compound 0.03 µM, first compound 3.16 µM); 2.52% (second compound 0.03 µM, first compound 10 µM). Moreover, the viability, T/C by setting is: (second compound 0.0949 µM, first compound 0.0316 µM) 96.1%; (second compound 0.0949 µM, first compound 0.1 µM) 95.4%; (second compound 0.0949 µM, first compound 0.316 µM) 83.8%; (second compound 0.0949 µM, first compound 1 µM) 115%; (second compound 0.0949 µM, first compound 3.16 µM) 86.2%; (second compound 0.0949 µM, first compound 10 µM) 8.51%. In addition, the viability, T/C runs as follows: (second compound 0.3 µM, first compound 0.0316 µM) 87.8%; (second compound 0.3 µM, first compound 0.1 µM) 95.3%; (second compound 0.3 µM, first compound 0.316 µM) 90.3%; (second compound 0.3 µM, first compound 1 µM) 117%; (second compound 0.3 µM, first compound 3.16 µM) 92.2%; (second compound 0.3 µM, first compound 10 µM) 5.39%. The viability, T/C is 104% (second compound 0.949 µM, first compound 0.0316 µM); 98.5% (second compound 0.949 µM, first compound 0.1 µM); 107% (second compound 0.949 µM, first compound 0.316 µM); 98.5% (second compound 0.949 µM, first compound 1 µM); 89.8% (second compound 0.949 µM, first compound 3.16 µM); 1.38% (second compound 0.949 µM, first compound 10 µM). Moreover, the viability, T/C was 100% (second compound 3 µM, first compound 0.0316 µM); 96.7% (second compound 3 µM, first compound 0.1 µM); 96.6% (second compound 3 µM, first compound 0.316 µM); 109% (second compound 3 µM, first compound 1 µM); 73.5% (second compound 3 µM, first compound 3.16 µM); 12.8% (second compound 3 µM, first compound 10 µM).
In the case of `O=C(c1ccc(F)c(F)c1Nc1ccc(I)cc1F)N1CC(O)([C@@H]2CCCCN2)C1` + CNC(C)C(=O)NC1CN(S(=O)(=O)c2cccc(S(=O)(=O)N3CCC4CCC(C(=O)NC(c5ccccc5)c5ccccc5)N4C(=O)C(NC(=O)C(C)NC)C3)c2)CCC2CCC(C(=O)NC(c3ccccc3)c3ccccc3)N2C1=O, the IC50 under setting [1] came out at 56.5 nM; the IC50 under setting [2] turned out to be 30.9 nM; the IC50 under setting [3] came to 27.2 nM; the IC50 under setting [4] is less than 3.16 nM; the IC50 under setting [5] was 11.4 nM. The viability, T/C is 65.5% under setting [6]; 64.5% under setting [7]; 50.4% under setting [8]; 48.9% under setting [9]; 25.3% (second compound 0.01 µM, first compound 0.316 µM); 1.67% (second compound 0.01 µM, first compound 1 µM). For the same molecule, the viability, T/C was 61.7% under setting [10]; 51.2% under setting [11]; 55.2% under setting [12]; 33.4% under setting [13]; 19.1% (second compound 0.0316 µM, first compound 0.316 µM); 1.07% (second compound 0.0316 µM, first compound 1 µM). In addition, the viability, T/C is, setting by setting: under setting [14], 56.4%; under setting [15], 57.5%; under setting [16], 50.7%; under setting [17], 29.6%; (second compound 0.1 µM, first compound 0.316 µM) 14.9%; (second compound 0.1 µM, first compound 1 µM) 1.5%. The viability, T/C under setting [18] is 48.3%; the viability, T/C under setting [19] is 45.4%; the viability, T/C under setting [20] was 50.7%; the viability, T/C under setting [21] is 34.1%; the viability, T/C (second compound 0.316 µM, first compound 0.316 µM) was 11%; the viability, T/C (second compound 0.316 µM, first compound 1 µM) was 0.99%. Besides, the viability, T/C is 54.8% under setting [22]; 48.4% under setting [23]; 43.6% under setting [24]; 38.5% under setting [25]; 12.7% (second compound 1 µM, first compound 0.316 µM); 0.99% (second compound 1 µM, first compound 1 µM).
On to `C=CC(=O)N1CCN(c2nc(=O)n(-c3c(C)ccnc3C(C)C)c3nc(-c4c(O)cccc4F)c(F)cc23)C(C)C1` (centres undefined), for which the viability, T/C is 90.9% and 96.8% and 96.9% (compound 0.0316 µM); 104% and 92.1% and 93.1% (compound 0.1 µM); 104% and 92.4% and 105% (compound 0.316 µM); 102% and 106% and 110% (compound 1 µM); 64.9% and 109% and 115% (compound 3.16 µM); 72.8% and 77% and 94% (compound 10 µM). Further, the IC50 (curve of compound) is more than 10000 nM.
Turning to `NC1CCC(NC2CC2c2ccccc2)CC1` (centres undefined), the viability, T/C reads like this: (compound 0.000316 µM) 72.9% and 80.7% and 109%; (compound 0.001 µM) 70.1% and 86.3% and 87%; (compound 0.00316 µM) 85.3% and 78.1% and 85.6%; (compound 0.01 µM) 78.4% and 94.6% and 91.1%; (compound 0.0316 µM) 68% and 88.5% and 86.8%; (compound 0.1 µM) 74.9% and 76.6% and 79.7%. In addition, the IC50 (curve of compound) is more than 100 nM.
